Type in all cases: protein-complex assay
Assay [1] concerns the target T1, Ecdysone receptor (Nezara viridula, UniProt E5L6Y0+E5L6Y1).
T1 sequence (E5L6Y1 whole entry): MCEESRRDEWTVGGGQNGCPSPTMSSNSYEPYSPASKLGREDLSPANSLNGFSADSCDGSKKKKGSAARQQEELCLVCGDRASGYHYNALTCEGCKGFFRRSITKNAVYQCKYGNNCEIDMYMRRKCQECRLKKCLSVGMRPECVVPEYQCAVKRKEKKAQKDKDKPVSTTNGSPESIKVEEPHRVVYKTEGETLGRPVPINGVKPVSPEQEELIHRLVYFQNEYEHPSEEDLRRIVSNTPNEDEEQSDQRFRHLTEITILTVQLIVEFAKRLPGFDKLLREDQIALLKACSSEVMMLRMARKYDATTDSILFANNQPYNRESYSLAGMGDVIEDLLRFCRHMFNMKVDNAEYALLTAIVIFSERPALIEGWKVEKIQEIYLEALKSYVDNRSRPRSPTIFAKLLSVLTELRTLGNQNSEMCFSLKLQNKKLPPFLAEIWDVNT
T1 sequence (E5L6Y0 whole entry): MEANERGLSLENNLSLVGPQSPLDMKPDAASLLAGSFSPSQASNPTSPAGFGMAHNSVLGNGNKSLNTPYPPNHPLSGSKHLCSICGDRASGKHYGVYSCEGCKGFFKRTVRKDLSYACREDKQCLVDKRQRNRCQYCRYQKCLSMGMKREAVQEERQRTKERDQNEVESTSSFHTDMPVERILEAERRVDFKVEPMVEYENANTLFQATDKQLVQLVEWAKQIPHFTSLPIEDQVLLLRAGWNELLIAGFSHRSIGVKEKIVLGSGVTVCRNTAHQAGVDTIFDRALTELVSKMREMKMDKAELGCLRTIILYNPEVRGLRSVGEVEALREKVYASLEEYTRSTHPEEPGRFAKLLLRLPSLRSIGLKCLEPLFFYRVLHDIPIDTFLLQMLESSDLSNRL
The assay can be described thus: Displacement of [3H]PonA from recombinant Nezara viridula EcR10. Background: Displacement assays read how much labelled ligand stays bound in the presence of the test substance.

The target in assay [2] is T1, Ecdysone receptor. The assay can be described thus: Displacement of [3H]PonA from recombinant Nezara viridula EcR11.
The target of assay [3] is T2, Ecdysone receptor (Drosophila melanogaster, UniProt P20153+P34021).
T2 sequence (P34021 whole entry): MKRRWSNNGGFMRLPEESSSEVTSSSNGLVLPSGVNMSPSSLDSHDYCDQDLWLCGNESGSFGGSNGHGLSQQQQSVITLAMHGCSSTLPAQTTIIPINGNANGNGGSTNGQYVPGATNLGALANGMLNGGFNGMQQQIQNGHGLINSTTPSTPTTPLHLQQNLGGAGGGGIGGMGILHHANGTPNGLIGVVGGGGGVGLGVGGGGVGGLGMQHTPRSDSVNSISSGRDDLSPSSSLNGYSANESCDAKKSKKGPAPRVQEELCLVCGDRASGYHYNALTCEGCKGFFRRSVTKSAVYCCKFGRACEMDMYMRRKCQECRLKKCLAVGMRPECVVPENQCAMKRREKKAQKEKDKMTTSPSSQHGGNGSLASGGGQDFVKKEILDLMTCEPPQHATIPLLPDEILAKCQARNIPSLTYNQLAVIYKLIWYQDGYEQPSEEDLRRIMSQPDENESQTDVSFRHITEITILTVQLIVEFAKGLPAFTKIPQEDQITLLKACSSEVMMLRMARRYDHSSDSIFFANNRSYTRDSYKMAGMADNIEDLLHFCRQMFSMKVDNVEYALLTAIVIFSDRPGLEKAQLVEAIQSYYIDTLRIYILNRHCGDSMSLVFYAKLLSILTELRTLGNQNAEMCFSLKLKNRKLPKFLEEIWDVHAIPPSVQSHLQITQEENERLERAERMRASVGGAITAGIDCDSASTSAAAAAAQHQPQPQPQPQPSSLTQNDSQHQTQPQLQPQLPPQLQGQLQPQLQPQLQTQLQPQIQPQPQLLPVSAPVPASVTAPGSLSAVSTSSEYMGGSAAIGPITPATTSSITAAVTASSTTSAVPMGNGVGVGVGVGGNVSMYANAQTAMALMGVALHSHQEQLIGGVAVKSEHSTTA
T2 sequence (P20153 whole entry): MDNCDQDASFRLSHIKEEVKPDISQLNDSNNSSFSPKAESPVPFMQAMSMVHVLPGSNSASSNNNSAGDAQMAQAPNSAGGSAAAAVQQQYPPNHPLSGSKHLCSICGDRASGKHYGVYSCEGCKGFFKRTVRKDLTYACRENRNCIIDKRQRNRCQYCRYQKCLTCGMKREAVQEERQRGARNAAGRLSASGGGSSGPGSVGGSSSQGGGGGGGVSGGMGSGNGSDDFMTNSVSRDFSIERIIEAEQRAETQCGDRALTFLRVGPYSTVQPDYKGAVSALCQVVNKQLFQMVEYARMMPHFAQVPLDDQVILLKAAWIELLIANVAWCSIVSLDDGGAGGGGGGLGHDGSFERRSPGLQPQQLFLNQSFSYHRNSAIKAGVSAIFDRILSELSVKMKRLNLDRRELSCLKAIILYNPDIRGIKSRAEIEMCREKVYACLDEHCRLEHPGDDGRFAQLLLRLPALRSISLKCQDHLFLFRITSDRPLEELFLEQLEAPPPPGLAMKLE
Put plainly: Binding affinity to Drosophila melanogaster EcR.

In assay [4] the target is T3, Ecdysone receptor (Spodoptera frugiperda, UniProt Q8MWR1+Q8MWR2).
T3 sequence (Q8MWR2 whole entry): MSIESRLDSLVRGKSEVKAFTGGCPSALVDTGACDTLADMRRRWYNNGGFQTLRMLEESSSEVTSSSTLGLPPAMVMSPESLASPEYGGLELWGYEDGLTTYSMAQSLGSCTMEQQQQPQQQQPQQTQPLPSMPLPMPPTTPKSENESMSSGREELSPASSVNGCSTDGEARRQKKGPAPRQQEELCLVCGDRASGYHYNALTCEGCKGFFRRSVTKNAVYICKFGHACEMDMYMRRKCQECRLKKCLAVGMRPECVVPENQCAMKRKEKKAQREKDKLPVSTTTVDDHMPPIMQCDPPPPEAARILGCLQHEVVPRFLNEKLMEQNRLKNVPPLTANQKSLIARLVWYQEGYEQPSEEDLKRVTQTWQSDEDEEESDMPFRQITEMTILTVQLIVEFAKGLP
T3 sequence (Q8MWR1 whole entry): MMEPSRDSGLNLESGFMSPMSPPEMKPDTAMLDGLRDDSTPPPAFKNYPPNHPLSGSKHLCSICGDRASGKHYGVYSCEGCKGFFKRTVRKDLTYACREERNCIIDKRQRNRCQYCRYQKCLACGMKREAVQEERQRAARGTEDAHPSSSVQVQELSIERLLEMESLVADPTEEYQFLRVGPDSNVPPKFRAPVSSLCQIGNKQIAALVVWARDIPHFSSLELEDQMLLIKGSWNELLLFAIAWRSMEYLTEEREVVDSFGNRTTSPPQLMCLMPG
The assay can be described thus: Binding affinity to Spodoptera frugiperda (fall armyworm) EcR.

The target of assay [5] is T1, Ecdysone receptor. Put plainly: Binding affinity to Nezara viridula EcR.
In assay [6] the target is T4, Ecdysone receptor (Leptinotarsa decemlineata, UniProt Q4W6C8+Q4W6D0).
T4 sequence (Q4W6D0 whole entry): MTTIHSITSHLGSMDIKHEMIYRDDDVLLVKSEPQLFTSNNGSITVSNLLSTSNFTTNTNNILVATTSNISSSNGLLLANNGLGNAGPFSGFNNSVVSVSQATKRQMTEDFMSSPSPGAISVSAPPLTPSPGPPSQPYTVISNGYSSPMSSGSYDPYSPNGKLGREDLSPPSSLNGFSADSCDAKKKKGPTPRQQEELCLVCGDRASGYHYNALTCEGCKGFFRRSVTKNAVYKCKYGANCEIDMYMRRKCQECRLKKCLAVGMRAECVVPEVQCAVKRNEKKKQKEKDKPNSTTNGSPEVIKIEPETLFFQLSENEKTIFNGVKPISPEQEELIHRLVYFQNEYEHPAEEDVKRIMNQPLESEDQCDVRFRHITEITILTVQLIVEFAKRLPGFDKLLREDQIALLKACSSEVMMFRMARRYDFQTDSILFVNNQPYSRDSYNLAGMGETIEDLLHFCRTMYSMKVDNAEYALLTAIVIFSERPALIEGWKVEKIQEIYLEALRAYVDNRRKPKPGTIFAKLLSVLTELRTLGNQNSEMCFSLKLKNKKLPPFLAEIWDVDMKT
T4 sequence (Q4W6C8 whole entry): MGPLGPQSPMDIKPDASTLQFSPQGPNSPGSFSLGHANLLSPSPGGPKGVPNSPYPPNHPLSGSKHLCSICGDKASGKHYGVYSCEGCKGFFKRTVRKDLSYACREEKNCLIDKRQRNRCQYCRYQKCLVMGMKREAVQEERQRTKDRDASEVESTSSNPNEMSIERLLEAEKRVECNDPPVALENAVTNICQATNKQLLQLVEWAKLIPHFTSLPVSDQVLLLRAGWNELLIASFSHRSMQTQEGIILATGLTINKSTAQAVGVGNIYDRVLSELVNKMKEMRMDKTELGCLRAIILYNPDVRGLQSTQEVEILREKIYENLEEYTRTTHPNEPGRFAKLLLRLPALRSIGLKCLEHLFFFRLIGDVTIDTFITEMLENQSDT
Put plainly: Binding affinity to Leptinotarsa decemlineata EcR.

By IC50 is commonly meant the concentration needed to halve the response being measured. The term Ki denotes the dissociation constant of the complex between target and ligand, obtained from inhibition or displacement. For `C[C@H]([C@H](O)CCC(C)(C)O)[C@H]1CC[C@@]2(O)C3=CC(=O)[C@@H]4C[C@@H](O)[C@@H](O)C[C@]4(C)[C@H]3CC[C@]12C` [ECDYSONE], in assay [1], the IC50 stood at 60000 nM and the Ki was 50400 nM. In assay [2], the IC50 worked out at 60000 nM and the Ki stood at 51100 nM.

For the compound `CC(CO)CC[C@@H](O)[C@](C)(O)[C@H]1CC[C@@]2(O)C3=CC(=O)[C@@H]4C[C@@H](O)[C@@H](O)C[C@]4(C)[C@H]3CC[C@]12C` (stereo not given in full) [INOKOSTERONE], in assay [1], the IC50 was 8000 nM and the Ki was 6700 nM. Further, in assay [2], the IC50 amounted to 7000 nM and the Ki is 6000 nM.

As for `C[C@H](C[C@@H](O)[C@](C)(O)[C@H]1CC[C@@]2(O)C3=CC(=O)[C@@H]4C[C@@H](O)[C@@H](O)C[C@]4(C)[C@H]3CC[C@]12C)C(C)(C)O` [MAKISTERONE A], the IC50 in assay [3] was 1380 nM; in assay [4], 389 nM; in assay [5], 1380 nM; in assay [6] it was 1740 nM.

As to `CC(C)CC[C@@H](O)[C@](C)(O)[C@H]1CC[C@@]2(O)C3=CC(=O)[C@]4(O)C[C@@H](O)[C@@H](O)C[C@]4(C)[C@H]3[C@H](O)C[C@]12C` [MURISTERONE A], in assay [1], the IC50 is 130 nM and the Ki is 100 nM. Further, in assay [2], the IC50 worked out at 150 nM and the Ki worked out at 100 nM.

For the compound `CC(C)CC[C@@H](O)[C@](C)(O)[C@H]1CC[C@@]2(O)C3=CC(=O)[C@@H]4C[C@@H](O)[C@@H](O)C[C@]4(C)[C@H]3CC[C@]12C` [PONASTERONE A], the IC50 in assay [1] was 280 nM; in assay [2], 250 nM. Besides, the Ki in assay [1] and in assay [2] was 200 nM each time.

(Values after ChEMBL document CHEMBL3045439, “Isoforms of the heteropteran Nezara viridula ecdysone receptor: protein characterisation, RH5992 insecticide binding and homology modelling” (Pest Manag Sci, 2011).)
